Reference: patent US9242984B2, “Pyrazolyl derivatives as Syk inhibitors” (Merck Sharp & Dohme Corp., priority 2012, dated 2016)

target: T1, recombinant human Syk (GST-hSyk fusion protein) (Homo sapiens, UniProt P43405); test: Homogeneous Time-Resolved Fluorescence (HTRF) assay for the recombinant human Syk enzyme; format: biochemical; conditions: 10-dose titration, 25 μM ATP; read-out: rhSYK IC50
T1 construct: purchased Carna Biosciences 08-176
Method in brief: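 IC50 came from a four-parameter fit over ten doses, 10 μM to 0.508 nM, with HTRF read-out (Eu-anti-pTyr antibody, SA-APC, EDTA stop, 30 min). The enzyme, 5 pM GST-hSyk, met compound for 10 min, then phosphorylated 250 nM biotin-peptide with 25 μM ATP and 5 mM Mg for 45 min at room temperature, pH 7.5.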

IC50 [nM]	Compound
58.5	Cc1cc(Nc2nccc(C(F)(F)F)n2)cc(-c2cnn(CC(O)c3ccccc3)c2)c1 (racemic) [Example 5.1, 2-(4-(3-methyl-5-((4-(trifluoromethyl)pyrimidin-2-yl)amino)phenyl)-1H-pyrazol-1-yl)-1-phenylethanol]
1.3	Cc1cc(Nc2nccc(C(F)F)n2)cc(-c2cnn(C3CCCC(O)C3O)c2)c1 (single isomer, unassigned) [Example 10.6, 3-[4-(3-{[4-(difluoromethyl)pyrimidin-2-yl]amino}-5-methylphenyl)-1H-pyrazol-1-yl]cyclohexane-1,2-diol]
3.2	Cc1cc(Nc2nccc(C(F)F)n2)cc(-c2cnn(CC(O)(CO)C(F)(F)F)c2)c1 (single isomer, unassigned) [Example 25.1, 2-((4-(3-((4-(Difluoromethyl)pyrimidin-2-yl)amino)-5-methylphenyl)-1H-pyrazol-1-yl)methyl)-3,3,3-trifluoropropane-1,2-diol]

same assay, conditions: IC50 class; 10-dose titration, 25 μM ATP; read-out: rhSYK Activity

Compound	IC50 [nM]
COc1nc(Nc2cc(C)cc(-c3cnn(CCC(N)=O)c3)c2)ncc1Cl [Example 2.7, 3-(4-{3-[(5-chloro-4-methoxypyrimidin-2-yl)amino]-5-methylphenyl}-1H-pyrazol-1-yl)propanamide]	≤ 100
Cc1cc(Nc2nccc(C(F)(F)F)n2)cc(-c2cnn(C3CCC(C(=O)OC(C)(C)C)CC3)c2)c1 (stereo not drawn) [Example 1.4, tert-butyl 4-[4-(3-methyl-5-{[4-(trifluoromethyl)-pyrimidin-2-yl]amino}-phenyl)-1H-pyrazol-1-yl]-cyclohexanecarboxylate]	1000 to 10000
Cc1cc(Nc2nccc(C(F)(F)F)n2)cc(-c2cnn(CC3OC(=O)NC3C)c2)c1 (stereo not drawn) [Example 3.119, 4-methyl-5-{[4-(3-methyl-5-{[4-(trifluoromethyl)pyrimidin-2-yl]amino}phenyl)-1H-pyrazol-1-yl]methyl}-1,3-oxazolidin-2-one]	≤ 100
Cc1cc(Nc2nccc(C(F)(F)F)n2)cc(-c2cnn(C[C@@H](O)CO)c2)c1 [Example 3.41, (2R)-3-[4-(3-methyl-5-{[4-(trifluoromethyl)pyrimidin-2-yl]amino}-phenyl)-1H-pyrazol-1-yl]propane-1,2-diol]	≤ 100
COc1nc(Nc2cc(C)cc(-c3cnn(C[C@](C)(O)CO)c3)c2)ncc1F [Example 2.89, (2S)-3-(4-{3-[(5-fluoro-4-methoxypyrimidin-2-yl)amino]-5-methylphenyl}-1H-pyrazol-1-yl)-2-methylpropane-1,2-diol]	≤ 100
CCC(O)(CC)Cn1cc(-c2cc(C)cc(Nc3nccc(C(F)F)n3)c2)cn1 [Example 5.32, 3-{[4-(3-{[4-(difluoromethyl)pyrimidin-2-yl]amino}-5-methylphenyl)-1H-pyrazol-1-yl]methyl}pentan-3-ol]	≤ 100
Cc1cc(Nc2nccc(C(F)F)n2)cc(-c2cnn(CC3CNC(=O)O3)c2)c1 (stereo not drawn) [Example 2.63, 5-{[4-(3-{[4-(difluoromethyl)pyrimidin-2-yl]amino}-5-methylphenyl)-1H-pyrazol-1-yl]methyl}-1,3-oxazolidin-2-one]	≤ 100
Cc1cc(Nc2nccc(C(F)(F)F)n2)cc(-c2cnn(C[C@]3(O)CC[C@@H](C(=O)O)CC3)c2)c1 [Example 5.5, cis-4-hydroxy-4-{[4-(3-methyl-5-{[4-(trifluoro-methyl)pyrimidin-2-yl]amino}-phenyl)-1H-pyrazol-1-yl]methyl}-cyclo-hexanecarboxylic acid]	≤ 100
O=C(O)C1CCC(n2cc(-c3cc(Cl)cc(Nc4cc(C(F)(F)F)ccn4)n3)cn2)CC1 (stereo not drawn) [Example 1.54, 4-[4-(4-chloro-6-{[4-(trifluoromethyl)pyridin-2-yl]amino}pyridin-2-yl)-1H-pyrazol-1-yl]cyclohexanecarboxylic acid]	≤ 100
Cc1ccnc(Nc2cccc(-c3cnn(CCC(=O)O)c3)n2)c1 [Example 1.18, 3-(4-{6-[(4-methylpyridin-2-yl)amino]pyridin-2-yl}-1H-pyrazol-1-yl)propanoic acid]	100 to 1000
Cc1cc(Nc2nccc(C)n2)cc(-c2cnn(CC3CNC(=O)O3)c2)c1 (stereo not drawn) [Example 2.31, 5-[(4-{3-methyl-5-[(4-methylpyrimidin-2-yl)amino]phenyl}-1H-pyrazol-1-yl)methyl]-1,3-oxazolidin-2-one]	≤ 100
Cc1cc(Nc2nccc(OC(C)C)n2)cc(-c2cnn(C[C@](C)(O)CO)c2)c1 [Example 2.96, (2S)-2-methyl-3-[4-(3-methyl-5-{[4-(1-methylethoxy)pyrimidin-2-yl]amino}phenyl)-1H-pyrazol-1-yl]propane-1,2-diol]	≤ 100
Cc1cc(Nc2nccc(C(F)(F)F)n2)cc(-c2cnn(C[C@H](O)C(=O)O)c2)c1 [Example 5.17, (2S)-2-hydroxy-3-[4-(3-methyl-5-{[4-(trifluorometh-yl)pyrimidin-2-yl]amino}-phenyl)-1H-pyrazol-1-yl]propanoic acid]	≤ 100
Cc1cc(Nc2ncc(Cl)c(C)n2)cc(-c2cnn(C[C@](C)(O)CO)c2)c1 [Example 2.97, (2S)-3-(4-{3-[(5-chloro-4-methylpyrimidin-2-yl)amino]-5-methylphenyl}-1H-pyrazol-1-yl)-2-methylpropane-1,2-diol]	≤ 100
Cc1cc(Nc2nccc(C(F)(F)F)n2)cc(-c2cnn(C(C)C(O)C(N)=O)c2)c1 (stereo not drawn) [Example 7.5, 2-hydroxy-3-[4-(3-methyl-5-{[4-(trifluorometh-yl)pyrimidin-2-yl]amino}-phenyl)-1H-pyrazol-1-yl]butanamide]	≤ 100
Cc1cc(Nc2nccc(C(F)(F)F)n2)cc(-c2cnn(CC(O)c3ccccc3)c2)c1 (racemic) [Example 5.1, 2-(4-(3-methyl-5-((4-(trifluoromethyl)pyrimidin-2-yl)amino)phenyl)-1H-pyrazol-1-yl)-1-phenylethanol]	≤ 100
Cc1ccnc(Nc2cccc(-c3cnn(C[C@](C)(O)CO)c3)c2)n1 [Example 2.95, (2S)-2-methyl-3-(4-{3-[(4-methylpyrimidin-2-yl)amino]phenyl}-1H-pyrazol-1-yl)propane-1,2-diol]	100 to 1000
Cc1cc(Nc2nccc(C(F)(F)F)n2)cc(-c2cnn3ncccc23)c1 [Example 2.35, N-(3-methyl-5-pyrazolo[1,5-b]pyridazin-3-ylphenyl)-4-(trifluoromethyl)pyrimidin-2-amine]	≤ 100
Cc1cc(Nc2nccc(C(C)C)n2)cc(-c2cnn(C[C@H](O)C(N)=O)c2)c1 [Example 6.9, (2S)-2-hydroxy-3-[4-(3-methyl-5-{[4-(1-methyl-ethyl)pyrimidin-2-yl]-amino}phenyl)-1H-pyrazol-1-yl]propanamide]	≤ 100
Cc1cc(Nc2nccc(C(F)F)n2)cc(-c2cnn(C3CCCC(O)C3O)c2)c1 (single isomer, unassigned) [Example 10.6, 3-[4-(3-{[4-(difluoromethyl)pyrimidin-2-yl]amino}-5-methylphenyl)-1H-pyrazol-1-yl]cyclohexane-1,2-diol]	≤ 100
Cc1cc(Nc2nccc(C(F)(F)F)n2)cc(-c2cnn(C3CCCC(O)C3O)c2)c1 (stereo not drawn) [Example 10.2, 3-[4-(3-methyl-5-{[4-(trifluorometh-yl)pyrimidin-2-yl]amino}phen-yl)-1H-pyrazol-1-yl]cyclohexane-1,2-diol]	≤ 100
Cc1cc(Nc2nccc(C(F)(F)F)n2)cc(-c2cnn(CC(N)=O)c2)c1 [Example 3.37, 2-[4-(3-methyl-5-{[4-(trifluoromethyl)pyrimidin-2-yl]amino}-phenyl)-1H-pyrazol-1-yl]acetamide]	≤ 100
Cc1cc(Nc2nccc(C(F)F)n2)cc(-c2cnn(CC(C)(C)O)c2)c1 [Example 5.35, 1-[4-(3-{[4-(difluoromethyl)pyrimidin-2-yl]amino}-5-methylphenyl)-1H-pyrazol-1-yl]-2-methylpropan-2-ol]	≤ 100

The remaining lines, values ahead:

IC50 [nM]	Compound
≤ 100	Cc1cc(Nc2nccc(C)n2)cc(-c2cnn(C[C@@H](O)C(=O)O)c2)c1 [Example 11.10, (2R)-2-hydroxy-3-(4-{3-methyl-5-[(4-methylpyrimidin-2-yl)amino]phenyl}-1H-pyrazol-1-yl)propanoic acid]
≤ 100	Cc1cc(Nc2ncc(F)c(C)n2)cc(-c2cnn(C[C@@H](O)C(=O)O)c2)c1 [Example 11.13, (2R)-3-(4-{3-[(5-fluoro-4-methylpyrimidin-2-yl)amino]-5-methylphenyl}-1H-pyrazol-1-yl)-2-hydroxypropanoic acid]
≤ 100	CC(=O)C(C)n1cc(-c2cc(C)cc(Nc3nccc(C(F)F)n3)c2)cn1 (stereo not drawn) [Example 21.3, 3-[4-(3-{[4-(difluoromethyl)pyrimidin-2-yl]amino}-5-methylphenyl)-1H-pyrazol-1-yl]butan-2-one]
≤ 100	COCCOC(=O)NC(C)(C)Cn1cc(-c2cc(C)cc(Nc3nccc(C(F)F)n3)c2)cn1 [Example 27.12, 2-methoxyethyl {2-[4-(3-{[4-(difluoromethyl)pyrimidin-2-yl]amino}-5-methylphenyl)-1H-pyrazol-1-yl]-1,1-dimethylethyl}carbamate]
≤ 100	Cc1cc(Nc2nccc(C(F)(F)F)n2)cc(-c2cnn(C(C)C3(O)CCOCC3)c2)c1 (stereo not drawn) [Example 12.14, 4-{1-[4-(3-methyl-5-{[4-(trifluoromethyl)pyrimidin-2-yl]amino}phenyl)-1H-pyrazol-1-yl]ethyl}-tetrahydro-2H-pyran-4-ol]
≤ 100	Cc1cc(Nc2ncc(F)c(C(F)F)n2)cc(-c2cnn(CC3(O)CCC3)c2)c1 [Example 29.6, 1-{[4-(3-{[4-(difluoromethyl)-5-fluoropyrimidin-2-yl]amino}-5-methylphenyl)-1H-pyrazol-1-yl]methyl}cyclobutanol]
≤ 100	Cc1cc(Nc2nccc(C(F)F)n2)cc(-c2cnn(CC(C)(O)CC#N)c2)c1 (stereo not drawn) [Example 20.7, 4-[4-(3-{[4-(difluoromethyl)pyrimidin-2-yl]amino}-5-methylphenyl)-1H-pyrazol-1-yl]-3-hydroxy-3-methylbutanenitrile]
≤ 100	Cc1cc(Nc2nccc(C(C)(F)F)n2)cc(-c2cnn(CC(C)(O)C(C)(C)O)c2)c1 (stereo not drawn) [Example 22.5, 1-[4-(3-{[4-(1,1-difluoroethyl)pyrimidin-2-yl]amino}-5-methylphenyl)-1H-pyrazol-1-yl]-2,3-dimethylbutane-2,3-diol]
≤ 100	Cc1cc(Nc2nccc(C(F)F)n2)cc(-c2cnn(CC3OC(=O)NC3C3CC3)c2)c1 (single isomer, unassigned) [Example 23.19, 4-cyclopropyl-5-{[4-(3-{[4-(difluoromethyl)pyrimidin-2-yl]amino}-5-methylphenyl)-1H-pyrazol-1-yl]methyl}-1,3-oxazolidin-2-one]
≤ 100	Cc1cc(Nc2nccc(C(F)F)n2)cc(-c2cnn(CC(O)(CO)C(F)(F)F)c2)c1 (single isomer, unassigned) [Example 25.1, 2-((4-(3-((4-(Difluoromethyl)pyrimidin-2-yl)amino)-5-methylphenyl)-1H-pyrazol-1-yl)methyl)-3,3,3-trifluoropropane-1,2-diol]
